≈ marks a conversion by molar mass, not a printed value. Read-outs that look alike come from different tables or passages of the source.
How the values were obtained:
E. coli GC 2231 = assay: MIC, broth microdilution; details: Escherichia coli
E. coli GC 2235 = assay: MIC, broth microdilution; details: Escherichia coli
E. coli GC 2232 = assay: MIC, broth microdilution; details: Escherichia coli
E. coli GC 2270 = assay: MIC, broth microdilution; details: Escherichia coli
E. coli GC 2271 = assay: MIC, broth microdilution; details: Escherichia coli
E. coli GC 4559 = assay: MIC, broth microdilution; details: Escherichia coli
E. coli GC 4560 = assay: MIC, broth microdilution; details: Escherichia coli
E. coli GC 3226 = assay: MIC, broth microdilution; details: Escherichia coli
E. coli GC 2203 = assay: MIC, broth microdilution; details: Escherichia coli
S. typhimurium GC 2172 = assay: MIC, broth microdilution; details: Salmonella enterica, TYPHIMURIUM
P. aeruginosa GC 2214 = assay: MIC, broth microdilution; details: Pseudomonas aeruginosa
S. aureus GC 6467 = assay: MIC, broth microdilution; details: Staphylococcus aureus
S. aureus GC 2216 = assay: MIC, broth microdilution; details: Staphylococcus aureus
S. aureus GC 6335 = assay: MIC, broth microdilution; details: Staphylococcus aureus
E. faecalis GC 2267 = assay: MIC, broth microdilution; details: Enterococcus faecalis
E. faecalis GC 2242 = assay: MIC, broth microdilution; details: Enterococcus faecalis
E. faecium GC 4556 = assay: MIC, broth microdilution; details: Enterococcus faecium
S. pneumoniae* GC 4465 = assay: MIC, broth microdilution; details: Streptococcus pneumoniae
S. agalactiae GC 4564 = assay: MIC, broth microdilution; details: Streptococcus agalactiae
Staph. aureus Smith = assay: In vivo activity (oral, iv; ED50) against Staph. aureus Smith in mice
[1] = read-out: MINIMAL INHIBITORY CONCENTRATION MIC, Human Serum
[2] = read-out: MINIMAL INHIBITORY CONCENTRATION MIC, Mouse Serum
[3] = read-out: MINIMAL INHIBITORY CONCENTRATION MIC, Water

MIC (E. coli GC 2231; GC2231, read-out: MINIMAL INHIBITORY CONCENTRATION MIC, Human Serum): 8 µg/mL (≈ 11.2 µM)
MIC (E. coli GC 2231; GC2231, read-out: MINIMAL INHIBITORY CONCENTRATION MIC, Mouse Serum): 0.5 µg/mL (≈ 0.699 µM)
MIC (E. coli GC 2231; GC2231, read-out: MINIMAL INHIBITORY CONCENTRATION MIC, Water): 16 µg/mL (≈ 22.4 µM)
MIC (E. coli GC 2235; GC2235, read-out: MINIMAL INHIBITORY CONCENTRATION MIC, Human Serum): 4 µg/mL (≈ 5.59 µM)
MIC (E. coli GC 2235; GC2235, read-out: MINIMAL INHIBITORY CONCENTRATION MIC, Mouse Serum): 0.5 µg/mL (≈ 0.699 µM)
MIC (E. coli GC 2235; GC2235, read-out: MINIMAL INHIBITORY CONCENTRATION MIC, Water): 8 µg/mL (≈ 11.2 µM)
MIC (E. coli GC 2232; GC2232, read-out: MINIMAL INHIBITORY CONCENTRATION MIC, Human Serum): 4 µg/mL (≈ 5.59 µM)
MIC (E. coli GC 2232; GC2232, read-out: MINIMAL INHIBITORY CONCENTRATION MIC, Mouse Serum): 0.5 µg/mL (≈ 0.699 µM)
MIC (E. coli GC 2232; GC2232, read-out: MINIMAL INHIBITORY CONCENTRATION MIC, Water): 16 µg/mL (≈ 22.4 µM)
MIC (E. coli GC 2270; GC2270, read-out: MINIMAL INHIBITORY CONCENTRATION MIC, Human Serum): 4 µg/mL (≈ 5.59 µM)
MIC (E. coli GC 2270; GC2270, read-out: MINIMAL INHIBITORY CONCENTRATION MIC, Mouse Serum): 0.5 µg/mL (≈ 0.699 µM)
MIC (E. coli GC 2270; GC2270, read-out: MINIMAL INHIBITORY CONCENTRATION MIC, Water): 16 µg/mL (≈ 22.4 µM)
MIC (E. coli GC 2271; GC2271, read-out: MINIMAL INHIBITORY CONCENTRATION MIC, Human Serum): 4 µg/mL (≈ 5.59 µM)
MIC (E. coli GC 2271; GC2271, read-out: MINIMAL INHIBITORY CONCENTRATION MIC, Mouse Serum): 0.25 µg/mL (≈ 0.349 µM)
MIC (E. coli GC 2271; GC2271, read-out: MINIMAL INHIBITORY CONCENTRATION MIC, Water): 8 µg/mL (≈ 11.2 µM)
MIC (E. coli GC 4559; GC4559, read-out: MINIMAL INHIBITORY CONCENTRATION MIC, Human Serum): 8 µg/mL (≈ 11.2 µM)
MIC (E. coli GC 4559; GC4559, read-out: MINIMAL INHIBITORY CONCENTRATION MIC, Mouse Serum): 0.5 µg/mL (≈ 0.699 µM)
MIC (E. coli GC 4559; GC4559, read-out: MINIMAL INHIBITORY CONCENTRATION MIC, Water): 16 µg/mL (≈ 22.4 µM)
MIC (E. coli GC 4560; GC4560, read-out: MINIMAL INHIBITORY CONCENTRATION MIC, Human Serum): 0.5 µg/mL (≈ 0.699 µM)
MIC (E. coli GC 4560; GC4560, read-out: MINIMAL INHIBITORY CONCENTRATION MIC, Mouse Serum): 0.12 µg/mL (≈ 0.168 µM)
MIC (E. coli GC 4560; GC4560, read-out: MINIMAL INHIBITORY CONCENTRATION MIC, Water): 1 µg/mL (≈ 1.4 µM)
MIC (E. coli GC 3226; GC3226, read-out: MINIMAL INHIBITORY CONCENTRATION MIC, Human Serum): 8 µg/mL (≈ 11.2 µM)
MIC (E. coli GC 3226; GC3226, read-out: MINIMAL INHIBITORY CONCENTRATION MIC, Mouse Serum): 0.5 µg/mL (≈ 0.699 µM)
MIC (E. coli GC 3226; GC3226, read-out: MINIMAL INHIBITORY CONCENTRATION MIC, Water): 16 µg/mL (≈ 22.4 µM)
MIC (E. coli GC 2203; GC2203, read-out: MINIMAL INHIBITORY CONCENTRATION MIC, Human Serum): 4 µg/mL (≈ 5.59 µM)
MIC (E. coli GC 2203; GC2203, read-out: MINIMAL INHIBITORY CONCENTRATION MIC, Mouse Serum): 0.25 µg/mL (≈ 0.349 µM)
MIC (E. coli GC 2203; GC2203, read-out: MINIMAL INHIBITORY CONCENTRATION MIC, Water): 8 µg/mL (≈ 11.2 µM)
MIC (S. typhimurium GC 2172; [1]): 32 µg/mL (≈ 44.7 µM)
MIC (S. typhimurium GC 2172; [2]): 4 µg/mL (≈ 5.59 µM)
MIC (S. typhimurium GC 2172; [3]): > 64 µg/mL
MIC (P. aeruginosa GC 2214; GC2214, read-out: MINIMAL INHIBITORY CONCENTRATION MIC, Human Serum): > 64 µg/mL
MIC (P. aeruginosa GC 2214; GC2214, read-out: MINIMAL INHIBITORY CONCENTRATION MIC, Mouse Serum): 32 µg/mL (≈ 44.7 µM)
MIC (P. aeruginosa GC 2214; GC2214, read-out: MINIMAL INHIBITORY CONCENTRATION MIC, Water): > 64 µg/mL
MIC (S. aureus GC 6467; GC6467, read-out: MINIMAL INHIBITORY CONCENTRATION MIC, Human Serum): 1 µg/mL (≈ 1.4 µM)
MIC (S. aureus GC 6467; GC6467, read-out: MINIMAL INHIBITORY CONCENTRATION MIC, Mouse Serum): 1 µg/mL (≈ 1.4 µM)
MIC (S. aureus GC 6467; GC6467, read-out: MINIMAL INHIBITORY CONCENTRATION MIC, Water): 2 µg/mL (≈ 2.79 µM)
MIC (S. aureus GC 2216; GC2216, read-out: MINIMAL INHIBITORY CONCENTRATION MIC, Human Serum): 0.25 µg/mL (≈ 0.349 µM)
MIC (S. aureus GC 2216; GC2216, read-out: MINIMAL INHIBITORY CONCENTRATION MIC, Mouse Serum): 0.25 µg/mL (≈ 0.349 µM)
MIC (S. aureus GC 2216; GC2216, read-out: MINIMAL INHIBITORY CONCENTRATION MIC, Water): 0.5 µg/mL (≈ 0.699 µM)
MIC (S. aureus GC 6335; GC6335, read-out: MINIMAL INHIBITORY CONCENTRATION MIC, Human Serum): 1 µg/mL (≈ 1.4 µM)
MIC (S. aureus GC 6335; GC6335, read-out: MINIMAL INHIBITORY CONCENTRATION MIC, Mouse Serum): 1 µg/mL (≈ 1.4 µM)
MIC (S. aureus GC 6335; GC6335, read-out: MINIMAL INHIBITORY CONCENTRATION MIC, Water): 2 µg/mL (≈ 2.79 µM)
MIC (E. faecalis GC 2267; GC2267, read-out: MINIMAL INHIBITORY CONCENTRATION MIC, Human Serum): 1 µg/mL (≈ 1.4 µM)
MIC (E. faecalis GC 2267; GC2267, read-out: MINIMAL INHIBITORY CONCENTRATION MIC, Mouse Serum): 0.5 µg/mL (≈ 0.699 µM)
MIC (E. faecalis GC 2267; GC2267, read-out: MINIMAL INHIBITORY CONCENTRATION MIC, Water): 4 µg/mL (≈ 5.59 µM)
MIC (E. faecalis GC 2242; GC2242, read-out: MINIMAL INHIBITORY CONCENTRATION MIC, Human Serum): 1 µg/mL (≈ 1.4 µM)
MIC (E. faecalis GC 2242; GC2242, read-out: MINIMAL INHIBITORY CONCENTRATION MIC, Mouse Serum): 0.5 µg/mL (≈ 0.699 µM)
MIC (E. faecalis GC 2242; GC2242, read-out: MINIMAL INHIBITORY CONCENTRATION MIC, Water): 2 µg/mL (≈ 2.79 µM)
MIC (E. faecium GC 4556; GC4556, read-out: MINIMAL INHIBITORY CONCENTRATION MIC, Human Serum): 1 µg/mL (≈ 1.4 µM)
MIC (E. faecium GC 4556; GC4556, read-out: MINIMAL INHIBITORY CONCENTRATION MIC, Mouse Serum): 0.5 µg/mL (≈ 0.699 µM)
MIC (E. faecium GC 4556; GC4556, read-out: MINIMAL INHIBITORY CONCENTRATION MIC, Water): 2 µg/mL (≈ 2.79 µM)
MIC (S. pneumoniae* GC 4465; [1]): 0.12 µg/mL (≈ 0.168 µM)
MIC (S. pneumoniae* GC 4465; [2]): 0.12 µg/mL (≈ 0.168 µM)
MIC (S. pneumoniae* GC 4465; [3]): 0.12 µg/mL (≈ 0.168 µM)
MIC (S. agalactiae GC 4564; GC4564, read-out: MINIMAL INHIBITORY CONCENTRATION MIC, Human Serum): 0.12 µg/mL (≈ 0.168 µM)
MIC (S. agalactiae GC 4564; GC4564, read-out: MINIMAL INHIBITORY CONCENTRATION MIC, Mouse Serum): 0.12 µg/mL (≈ 0.168 µM)
MIC (S. agalactiae GC 4564; GC4564, read-out: MINIMAL INHIBITORY CONCENTRATION MIC, Water): 0.25 µg/mL (≈ 0.349 µM)
Structure (SMILES): CCC(=O)OCOC(=O)N(CC(=O)Nc1cc(N(C)C)c2c(c1O)C(=O)C1=C(O)[C@]3(O)C(=O)C(C(N)=O)=C(O)[C@@H](N(C)C)[C@@H]3C[C@@H]1C2)C(C)(C)C [Example 49, ({[(2-{[(5aR,6aS,7S,10aS)-9-(aminocarbonyl)-4,7-bis(dimethylamino)-1,8,10a,11-tetrahydroxy-10,12-dioxo-5,5a,6,6a,7,10,10a,12-octahydrotetracen-2-yl]amino}-2-oxoethyl)(tert-butyl)amino]carbonyl}oxy)methyl propionate]
ED50 (Staph. aureus Smith; Staphylococcus aureus, in Mus musculus, iv, read-out: ED50 SIV (Staph aureus Smith)): 0.92 mg/kg
ED50 (Staph. aureus Smith; Staphylococcus aureus, in Mus musculus, po, read-out: ED50 SOD (Staph aureus Smith)): 16 mg/kg
ED50 (Staph. aureus Smith; Staphylococcus aureus, in Mus musculus, po, read-out: ED50 Staph Smith SOD): 16.6 mg/kg
ED50 (Staph. aureus Smith; iv, read-out: ED50 Staph Smith SIV): 0.92 mg/kg
